Reference: BindingDB's records for doi:10.1021/ml3003346 (2012)
pIC50: −log10 of the molar value.

Assay: Inhibition of EZH2-mediated proliferation of human LNCaP cells after 6 days by chemiluminescence analysis

- pIC50: 5.35
SMILES: Cc1cc(C)c(CNC(=O)c2cc(-c3ccc(N4CCN(C)CC4)nc3)cc3c2cnn3C(C)C)c(=O)[nH]1
